From US11351275B2, “Metal complexes with bisphophonate or pyrophosphate useful as imaging agents” (Duke University, priority 2015, dated 2022)

Legend:
[1] = identical field strength (7T), commercial Gd(III) agent; cited from earlier work
[2] = In vivo MR imaging (biodistribution) after i.v. administration of Mn complexes; design: species or system mouse
Experimental: FIG. 4A. In vivo MRI in control mouse after i.v. administration of MnNTA.
FIG. 4B. MRI after i.v. administration of Mn:ETID (50 μL of 40 mM solution).
In vivo behavior was tested of two relatively strong (log K1>7) ligands for Mn(II) chelation, nitrilotriacetic acid (NTA), closely related to EDTA, and […] (3,4-DBA).
This in vivo behavior was also what is observed for the FDA-approved agent Teslascan. In the past, development of paramagnetic Mn complexes for MRI has been challenged by the inherent coordination lability of Mn(II) (e.g., Irving Williams series), resulting in the propensity of Mn(II) to be trans-metallated by other endogenous metals such as zinc in vivo. The only FDA-approved approved Mn(II) PM complex for MRI was Teslascan, which has now been discontinued. […] Contrast enhancement was therefore based on free Mn and confined to the liver.
Enhancement of the bowel is also noted but more variable, believed to represent elimination of the coordination complex from the gallbladder into the small intestine. […]
Finally, it is worth noting that free Mn is believed to be toxic neurologically if allowed to accumulate to high concentrations in certain neuronal populations. […] Since Mn accumulation in tissues is readily visualized with MRI, however, selective delivery of Mn-containing agents is easily monitored. […]

[3] = FDA-approved Mn(II) agent, prior experience; cited from earlier work
4T1 tumor = assay: Dynamic contrast enhancement of 4T1 tumor after i.v. administration; type: in vivo; conditions: pilot data, versus paramagnetic coordination complex alone
Experimental: FIG. 5. Dynamic contrast enhancement of 4T1 tumor after i.v. admin of 1-hydroxybisphosphonate:Mn complex linked to HSP90 inhibitor as in Scheme 1C, 25 mg/kg. Graph on left depicts relative change in T1 enhancement in tumors after labeled drug (n=5) and after Mn:ETID complex alone (n=6).
Several synthetic strategies were used for labeling small molecule drugs either directly or via polyethyleneglycol (PEG) linkers. Two lead complexes, the first with a medronate analogue (Scheme 1B) via the amine-terminated PEG linker, and the second an etidronate analogue coupled through the COOH-terminated PEG linker (Scheme 1C), have now been synthesized, characterized and studied preliminarily in vivo.

[4] = EDTA reference value in competition experiments; cited from earlier work

For `O=C([O-])CN1CCN(CC(=O)[O-])CCN([C@H](CO)[C@H](O)CO)CCN(CC(=O)[O-])CC1.[Gd+3]` (racemic) [gadobutrol], the “r1 (relaxivity stated as equivalent)” value [1] is given as 5.2 mM⁻¹ s⁻¹.
In the case of `O=C(O)CN(CC(=O)O)CC(=O)O` [NTA, nitrilotriacetic acid], the cardiac enhancement ([2]; after i.v. administration, indicates free Mn released into blood pool) is reported as “cardiac enhancement was also seen” and the “biodistribution on in vivo MR imaging” value ([2]; mouse, in vivo, iv) is reported as “consistent with release of free Mn and hepatocellular uptake”.
In the case of `Cc1ncc(COP(=O)([O-])[O-])c(CN(CCN(CC(=O)[O-])Cc2c(COP(=O)([O-])[O-])cnc(C)c2[O-])CC(=O)[O-])c1[O-].[H+].[H+].[H+].[Mn+2].[Na+].[Na+].[Na+]` [Teslascan], the “in vivo distribution behaviour” value [3] is listed as “immediately distributed to the liver, releasing free Mn”.
In the case of `Cc1nn(-c2ccc(C(N)=O)c(NCCCOCCOCCOCCOCCOCCCC(=O)NCCCC(O)(P(=O)(O)O)P(=O)(O)O)c2)c2c1C(=O)CC(C)(C)C2` [Scheme 1C], the “enhancement in 4T1 tumors” value (4T1 tumor) is reported as “progressive accumulation of enhancement in 4T1 tumors that is greater than what is seen for the paramagnetic coordination complex alone”.
For `Cc1nn(-c2ccc(C(N)=O)c(NCCCOCCOCCOCCOCCOCCCNC(=O)CC(P(=O)(O)O)P(=O)(O)O)c2)c2c1C(=O)CC(C)(C)C2` [Scheme 1B], the “enhancement in 4T1 tumors” value (4T1 tumor) was “progressive accumulation of enhancement in 4T1 tumors that is greater than what is seen for the paramagnetic coordination complex alone”.
For `O=C(O)CN(CCN(CC(=O)O)CC(=O)O)CC(=O)O` [EDTA], the “log K1” value [4] is listed as 26.
